Source: US20240287079A1, “6-AMINOPYRAZOLOPYRIMIDINE COMPOUND AND PHARMACEUTICAL USE THEREOF” (Japan Tobacco Inc., priority 2021, published 2024)
pIC50: −log10 of the molar value.

The compounds below were run against NLRP3 inflammasome (Homo sapiens (Human), UniProt Q96P20) (assay: Evaluation of NLRP3 inflammasome inhibitory activity (inhibition of IL-1β production in LPS/Nigericin-stimulated THP1-Null cells)). Settings: IL-1β production in THP1-Null cells, PMA, LPS 1 μg/mL, Nigericin 7.5 μmol/L, AlphaLISA.
NLRP3 inflammasome, sequence (Q96P20 whole entry): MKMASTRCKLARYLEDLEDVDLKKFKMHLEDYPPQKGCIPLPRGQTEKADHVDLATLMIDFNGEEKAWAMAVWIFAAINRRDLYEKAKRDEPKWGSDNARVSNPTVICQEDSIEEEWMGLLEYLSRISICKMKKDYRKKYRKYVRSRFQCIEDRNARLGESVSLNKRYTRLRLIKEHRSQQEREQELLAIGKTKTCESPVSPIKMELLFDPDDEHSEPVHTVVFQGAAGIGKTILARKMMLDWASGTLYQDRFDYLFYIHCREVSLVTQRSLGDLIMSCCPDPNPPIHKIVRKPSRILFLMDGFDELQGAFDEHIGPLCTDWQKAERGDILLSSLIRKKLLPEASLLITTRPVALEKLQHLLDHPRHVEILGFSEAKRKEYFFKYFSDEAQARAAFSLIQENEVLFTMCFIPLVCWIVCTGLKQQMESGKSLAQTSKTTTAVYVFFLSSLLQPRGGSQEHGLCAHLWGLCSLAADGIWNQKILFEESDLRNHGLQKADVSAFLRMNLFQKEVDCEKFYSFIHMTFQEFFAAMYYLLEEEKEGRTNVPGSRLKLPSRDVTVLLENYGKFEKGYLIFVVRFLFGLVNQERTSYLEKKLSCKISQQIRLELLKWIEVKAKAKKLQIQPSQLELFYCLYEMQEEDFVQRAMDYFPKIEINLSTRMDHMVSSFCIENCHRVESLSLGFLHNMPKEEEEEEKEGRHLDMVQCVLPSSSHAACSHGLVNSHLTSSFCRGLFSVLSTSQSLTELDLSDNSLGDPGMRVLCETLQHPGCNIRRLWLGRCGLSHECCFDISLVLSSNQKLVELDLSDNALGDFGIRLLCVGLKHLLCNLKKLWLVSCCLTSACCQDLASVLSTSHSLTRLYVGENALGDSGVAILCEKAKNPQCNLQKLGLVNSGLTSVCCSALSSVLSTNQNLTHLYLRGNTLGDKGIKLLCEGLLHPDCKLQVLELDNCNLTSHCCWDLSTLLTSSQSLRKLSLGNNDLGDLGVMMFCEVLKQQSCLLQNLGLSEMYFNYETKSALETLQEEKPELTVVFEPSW
Type: cell-based
Description: The NLRP3 inflammasome inhibitory activity of test compounds were evaluated on the basis of the inhibitory activity of the IL-1β production in THP1-Null cells (Product Number: thp-null, InvivoGen). […] The supernatant of the culture was removed, and thereto was added media for assay (25 μL/well) containing 1 μg/mL Lipopolysaccharides (Product Number: L2654, Sigma-Aldrich (registered trademark)). […] The supernatant of the culture was removed. […] A solution containing a test compound (20 μL/well) was added to test compound-setting wells. […] The supernatant of the culture was cryonically stored (set at −20° C.) until measurement of IL-1β.
The amount of IL-1β in the culture supernatant was quantitated with AlphaLISA(registered trademark) Human IL-1β Detection Kit (Product Number: AL220C, Perkin Elmer). Fluorescence intensity was measured with a microplate reader EnSpier (Model number: 2300-00J, Perkin Elmer) or EnSight(Model number: HH34000000, Perkin Elmer) according to procedure manuals attached thereto. Inhibition rates of the test compound-setting wells were calculated on the basis of 100% for the blank-setting wells and 0% for the control-setting wells.

| SMILES | pIC50 |
| --- | --- |
| Cc1ccccc1-n1cc2c(=O)[nH]c(N3CCOCC3C)nc2n1 (racemic) [Example 17] | 5.55 |
| Cc1ccccc1-n1cc2c(=O)[nH]c(N3CCC(O)C3)nc2n1 (racemic) [Example 21] | 5.80 |
| Cc1ccccc1-n1cc2c(=O)[nH]c(N3CCC(C#N)C3)nc2n1 (racemic) [Example 26] | 5.89 |
| Cc1ccccc1-n1cc2c(=O)[nH]c(N3CCC(c4ccccc4)C3)nc2n1 (racemic) [Example 27] | 5.92 |
| CCOC1CCN(c2nc3nn(-c4ccccc4C)cc3c(=O)[nH]2)C1 (racemic) [Example 28] | 6.02 |
| Cc1ccccc1-n1cc2c(=O)[nH]c(N3CCC(C)(O)C3)nc2n1 (racemic) [Example 37] | 5.49 |
| Cc1ccccc1-n1cc2c(=O)[nH]c(N3CCC3Cc3ccccc3)nc2n1 (racemic) [Example 38] | 5.60 |
| CCOC1CCN(c2nc3nn(-c4c(C)cccc4C)cc3c(=O)[nH]2)C1 (racemic) [Example 48] | 6.09 |
| COC1CCN(c2nc3nn(-c4c(C)cccc4C)cc3c(=O)[nH]2)C1 (racemic) [Example 54] | 6.32 |
| COC1CCN(c2nc3nn(-c4ccc(C)cc4C)cc3c(=O)[nH]2)C1 (racemic) [Example 56] | 6.72 |
| CCOC1CCN(c2nc3nn(-c4ccc(C)cc4C)cc3c(=O)[nH]2)C1 (racemic) [Example 57] | 6.82 |
| COC1CCN(c2nc3nn(-c4ccc(Br)cc4C)cc3c(=O)[nH]2)C1 (racemic) [Example 70] | 7.41 |
| COCC1CN(c2nc3nn(-c4ccc(Br)cc4C)cc3c(=O)[nH]2)CCO1 (racemic) [Example 72] | 7.28 |
| Cc1cc(Br)ccc1-n1cc2c(=O)[nH]c(N3CCC(C#N)C3)nc2n1 (racemic) [Example 90] | 8.31 |
| COC1CCN(c2nc3nn(-c4c(C)cc(C)cc4C)cc3c(=O)[nH]2)C1 (racemic) [Example 93] | 8.04 |
| Cc1cc(C)c(-n2cc3c(=O)[nH]c(N4CCCC(O)C4)nc3n2)c(C)c1 (racemic) [Example 107] | 7.24 |
| COC1CCCN(c2nc3nn(-c4c(C)cc(C)cc4C)cc3c(=O)[nH]2)C1 (racemic) [Example 108] | 6.70 |
| Cc1cc(C)c(-n2cc3c(=O)[nH]c(N4CCC(C)C4)nc3n2)c(C)c1 (racemic) [Example 109] | 7.19 |
| CNC(=O)C1CCN(c2nc3nn(-c4c(C)cc(C)cc4C)cc3c(=O)[nH]2)C1 (racemic) [Example 110] | 7.10 |
| CC(=O)NC1CCN(c2nc3nn(-c4c(C)cc(C)cc4C)cc3c(=O)[nH]2)C1 (racemic) [Example 111] | 7.25 |
| Cc1cc(C)c(-n2cc3c(=O)[nH]c(N4CCC(S(C)(=O)=O)C4)nc3n2)c(C)c1 (racemic) [Example 112] | 7.26 |
| Cc1cc(C)c(-n2cc3c(=O)[nH]c(N4CCC(N(C)C)C4)nc3n2)c(C)c1 (racemic) [Example 113] | 7.20 |
| Cc1cc(C)c(-n2cc3c(=O)[nH]c(N4CCCC(CO)C4)nc3n2)c(C)c1 (racemic) [Example 116] | 7.10 |
| CC(O)c1cc(Br)ccc1-n1cc2c(=O)[nH]c(N3CCOCC3)nc2n1 (racemic) [Example 130] | 7.20 |
| O=c1[nH]c(N2CCOCC2)nc2nn(-c3ccc(Br)cc3C(O)C3CC3)cc12 (racemic) [Example 150] | 7.80 |

| SMILES | pIC50 |
| --- | --- |
| Cc1cc(Br)ccc1-n1cc2c(=O)[nH]c(N3CC4CC3CO4)nc2n1 (racemic) [Example 159] | 7.96 |
| Cc1cc(Cl)cc(C(O)C2CC2)c1-n1cc2c(=O)[nH]c(N3CCOCC3)nc2n1 (racemic) [Example 162] | 6.82 |
| O=c1[nH]c(N2CCCC2CO)nc2nn(-c3ccc(C(F)(F)F)cc3Cl)cc12 (racemic) [Example 178] | 7.48 |
| Cc1cc(Cl)cc(C(C)C)c1-n1cc2c(=O)[nH]c(N3CCOCC3)nc2n1 (racemic) [Example 188] | 7.05 |
| Cc1cc(Br)cc(C)c1-n1cc2c(=O)[nH]c(N3CCC(C(C)(C)O)C3)nc2n1 (racemic) [Example 194] | 7.62 |
| Cc1cc(Br)cc(C)c1-n1cc2c(=O)[nH]c(N3CC4CC3C4)nc2n1 (racemic) [Example 217] | 8.15 |
| Cc1cc(Br)cc(C)c1-n1cc2c(=O)[nH]c(N3CC4CC3CN4S(C)(=O)=O)nc2n1 (racemic) [Example 219] | 7.72 |
| COCC(=O)N1CC2CC1CN2c1nc2nn(-c3c(C)cc(Br)cc3C)cc2c(=O)[nH]1 (racemic) [Example 220] | 7.64 |
| COCC(=O)N1CC2CC1CN2c1nc2nn(-c3c(C)cc(C4CC4)cc3C)cc2c(=O)[nH]1 (racemic) [Example 234] | 7.62 |
| Cc1cc(Br)cc(C)c1-n1cc2c(=O)[nH]c(NC3CCCN(C)C3)nc2n1 (racemic) [Example 245] | 8.10 |
| Cc1cc(Br)cc(C)c1-n1cc2c(=O)[nH]c(N3CC4COC(C4)C3)nc2n1 (racemic) [Example 279] | 7.82 |
| Cc1cc(Br)cc(C)c1-n1cc2c(=O)[nH]c(N3CCOC4CC43)nc2n1 (racemic) [Example 289] | 8.00 |
| Cc1cc(C(C)C(F)(F)F)cc(C)c1-n1cc2c(=O)[nH]c(N3CCOCC3)nc2n1 (racemic) [Example 294] | 6.57 |
| Cc1cc(Br)cc(C)c1-n1cc2c(=O)[nH]c(N3CCC(C#N)C3)nc2n1 (racemic) [Example 323] | 8.19 |
| Cc1cc(C2CC2)cc(C)c1-n1cc2c(=O)[nH]c(N3CCC(C#N)C3)nc2n1 (racemic) [Example 324] | 8.21 |
| CCC(C)n1nc(C)c(-n2cc3c(=O)[nH]c(N4CCCC4)nc3n2)c1C (racemic) [Example 347] | 6.04 |
| Cc1cc(Br)cc(C)c1-n1cc2c(=O)[nH]c(N3CCOCC3O)nc2n1 (racemic) [Example 363] | 8.54 |
| Cc1cc(Br)cc(C)c1-n1cc2c(=O)[nH]c(N3CCOC(O)C3)nc2n1 (racemic) [Example 364] | 7.18 |
| O=c1[nH]c(N2CCCC2)nc2nn(-c3ccccc3Cl)cc12 [Example 1] | 6.47 |
| O=c1[nH]c(N2CCCC2)nc2nn(-c3ccccc3)cc12 [Example 2] | 5.05 |
| Cc1ccccc1-n1cc2c(=O)[nH]c(N3CCCC3)nc2n1 [Example 3, 6-(pyrrolidin-1-yl)-2-(o-tolyl)-2,5-dihydro-4H-pyrazolo[3,4-d]pyrimidin-4-one] | 6.28 |
| CN(C)c1nc2nn(-c3ccccc3Cl)cc2c(=O)[nH]1 [Example 4] | 5.77 |
| Cc1ccccc1-n1cc2c(=O)[nH]c(N3CCOCC3)nc2n1 [Example 5] | 5.85 |
| Cc1ccc(C(F)(F)F)cc1-n1cc2c(=O)[nH]c(N3CCCC3)nc2n1 [Example 6] | 5.40 |
| COc1ccccc1CN(C)c1nc2nn(-c3ccccc3C)cc2c(=O)[nH]1 [Example 7] | 4.66 |

| SMILES | pIC50 |
| --- | --- |
| O=c1[nH]c(N2CCCC2)nc2nn(-c3ccccc3C(F)(F)F)cc12 [Example 8] | 6.23 |
| O=c1[nH]c(N2CCCC2)nc2nn(-c3ccccc3OC(F)(F)F)cc12 [Example 9] | 5.92 |
| O=c1[nH]c(N2CCCC2)nc2nn(-c3c(F)cccc3F)cc12 [Example 10] | 5.62 |
| Cc1cccc(C)c1-n1cc2c(=O)[nH]c(N3CCCC3)nc2n1 [Example 11] | 6.70 |
| Cc1ccccc1-n1cc2c(=O)[nH]c(N3CCC(F)(F)C3)nc2n1 [Example 12] | 6.42 |
| COc1nc(N2CCCC2)nc2nn(-c3ccccc3C)cc12 [Example 13] | 5.11 |
| Cc1ccccc1-n1cc2c(=O)n(C)c(N3CCCC3)nc2n1 [Example 14] | 5.14 |
| Cc1ccccc1-n1cc2c(=O)[nH]c(N3CCCCC3)nc2n1 [Example 15] | 5.82 |
| Cc1ccccc1-n1cc2c(=O)[nH]c(N3CCC3)nc2n1 [Example 16] | 5.89 |
| CCCN(C)c1nc2nn(-c3ccccc3C)cc2c(=O)[nH]1 [Example 18] | 4.92 |
| CCCNc1nc2nn(-c3ccccc3C)cc2c(=O)[nH]1 [Example 19] | 5.85 |
| Cc1ccccc1-n1cc2c(=O)[nH]c(N(C)C)nc2n1 [Example 20] | 5.19 |
| Cc1ccccc1-n1cc2c(=O)[nH]c(N3CCCCCC3)nc2n1 [Example 22] | 5.09 |
| Cc1ccccc1-n1cc2c(=O)[nH]c(N(C)C(C)C)nc2n1 [Example 23] | 5.72 |
| Cc1ccccc1-n1cc2c(=O)[nH]c(Nc3ccccc3)nc2n1 [Example 24] | 5.62 |
| O=c1[nH]c(N2CCOCC2)nc2nn(-c3ccccc3C(F)(F)F)cc12 [Example 25] | 6.02 |
| O=c1[nH]c(N2CCCC2)nc2nn(-c3c(Cl)cccc3Cl)cc12 [Example 30, 2-(2,6-dichlorophenyl)-6-(pyrrolidin-1-yl)-2,5-dihydro-4H-pyrazole[3,4-d]pyrimidin-4-one] | 5.96 |
| CC(C)c1ccccc1-n1cc2c(=O)[nH]c(N3CCCC3)nc2n1 [Example 31] | 6.27 |
| O=c1[nH]c(N2CCCC2)nc2nn(-c3ccc(F)cc3Cl)cc12 [Example 32] | 6.62 |
| COC1CN(c2nc3nn(-c4ccccc4C)cc3c(=O)[nH]2)C1 [Example 33] | 5.64 |
| Cc1ccccc1-n1cc2c(=O)[nH]c(N3CC(F)(F)C3)nc2n1 [Example 34] | 6.33 |
| Cc1ccccc1-n1cc2c(=O)[nH]c(NCC(C)C)nc2n1 [Example 35] | 5.77 |
| CNc1nc2nn(-c3ccccc3C)cc2c(=O)[nH]1 [Example 36] | 5.77 |

Same assay, conditions: IL-1β production in THP1-Null cells; test compound 24 μM

| SMILES | inhibition at 24 µM |
| --- | --- |
| N#Cc1ccccc1-n1cc2c(=O)[nH]c(N3CCCC3)nc2n1 [Example 29] | 2% |
